In the NIST ThermoML archive (doi:10.1021/acs.jced.5b00474):
Where “and” joins values, the source holds several entries; their conditions need not be identical. Identical values can stand only once. Numbers after ± are expanded uncertainties.

Experiments:
[1] = 101 kPa; for speed of sound: Frequency=3 MHz, Sing-around technique in a fixed-path interferometer; for mass density: Vibrating tube method
[2] = xn = mol fraction of the nth substance listed; conditions: 101 kPa, Liquid; for speed of sound: Frequency=3 MHz, Sing-around technique in a fixed-path interferometer; for mass density: Vibrating tube method

CN1CCCC1=O [N-methylpyrrolidone]
[1], Liquid
Conditions | mass density | speed of sound
293.15 K | 1032.25 ± 0.51 kg/m3 and 1032.51 ± 0.51 kg/m3 | 1564.7 ± 0.94 m/s
298.14 K | 1028.07 ± 0.51 kg/m3 | 1545.5 ± 0.94 m/s
298.15 K | 1027.79 ± 0.51 kg/m3 | 1544.6 ± 0.94 m/s
303.14 K | 1023.61 ± 0.51 kg/m3 | 1526.1 ± 0.93 m/s
303.15 K | 1023.33 ± 0.51 kg/m3 | 1525.3 ± 0.93 m/s
308.15 K | 1019.15 ± 0.51 kg/m3 and 1018.87 ± 0.51 kg/m3 | 1506 ± 0.93 m/s and 1506.9 ± 0.93 m/s
313.15 K | 1014.41 ± 0.51 kg/m3 | 1486.8 ± 0.92 m/s
318.15 K | 1009.95 ± 0.51 kg/m3 | 1467.8 ± 0.92 m/s
323.16 K | 1005.48 ± 0.51 kg/m3 | 1448.9 ± 0.91 m/s

ClC(Cl)Cl [trichloromethane]
[1], Liquid
Conditions | mass density | speed of sound
293.15 K | 1487.52 ± 0.57 kg/m3 and 1488.55 ± 0.59 kg/m3 | 1001.5 ± 0.79 m/s and 1000.9 ± 0.78 m/s
295.15 K | 1483.74 ± 0.57 kg/m3 | –
297.15 K | 1479.93 ± 0.57 kg/m3 | –
298.15 K | 1478.02 ± 0.57 kg/m3 and 1479.07 ± 0.55 kg/m3 | 984.65 ± 0.78 m/s and 984.33 ± 0.78 m/s
303.15 K | 1468.47 ± 0.57 kg/m3 | 967.76 ± 0.78 m/s
303.16 K | 1469.52 ± 0.57 kg/m3 | 967.53 ± 0.78 m/s
308.15 K | 1459.91 ± 0.57 kg/m3 | 950.62 ± 0.78 m/s
308.16 K | 1458.85 ± 0.58 kg/m3 | 950.87 ± 0.77 m/s

ClC(Cl)Cl [trichloromethane] + O=C1CCCN1
[2], x2 = 0
Conditions | mass density [kg/m3] | speed of sound [m/s]
293.15 K | 1487.52 ± 0.57 | 1001.5 ± 0.79
295.15 K | 1483.74 ± 0.57 | –
297.15 K | 1479.93 ± 0.57 | –
298.15 K | 1478.02 ± 0.57 | 984.65 ± 0.78
303.15 K | 1468.47 ± 0.57 | 967.76 ± 0.78
308.16 K | 1458.85 ± 0.57 | 950.87 ± 0.78

CC#N [acetonitrile]
[1], Liquid
Conditions | mass density | speed of sound
293.15 K | 781.989 ± 0.52 kg/m3 | –
298.15 K | 776.609 ± 0.52 kg/m3 and 776.616 ± 0.52 kg/m3 | 1278.9 ± 0.88 m/s and 1278.6 ± 0.88 m/s
303.15 K | 771.183 ± 0.52 kg/m3 and 771.178 ± 0.52 kg/m3 | 1259 ± 0.88 m/s and 1258.4 ± 0.88 m/s
308.15 K | 765.722 ± 0.52 kg/m3 and 765.719 ± 0.52 kg/m3 | 1239.1 ± 0.87 m/s and 1238.3 ± 0.87 m/s
313.15 K | 760.223 ± 0.53 kg/m3 and 760.231 ± 0.53 kg/m3 | 1219.3 ± 0.86 m/s and 1218.2 ± 0.86 m/s
318.15 K | 754.709 ± 0.53 kg/m3 | 1199.5 ± 0.86 m/s
318.16 K | 754.702 ± 0.53 kg/m3 | 1198.1 ± 0.86 m/s
323.16 K | 749.144 ± 0.53 kg/m3 and 749.15 ± 0.53 kg/m3 | 1178 ± 0.86 m/s and 1179.6 ± 0.84 m/s

O=C1CCCN1 [2-pyrrolidinone]
[1], Metastable liquid
Conditions | mass density [kg/m3] | speed of sound [m/s]
293.15 K | 1111.44 ± 0.51 | 1649.3 ± 0.94
298.15 K | 1107.35 ± 0.51 | 1632.9 ± 0.94
301.15 K | 1104.88 ± 0.51 | –
303.15 K | 1103.26 ± 0.51 | 1616.7 ± 0.93
308.15 K | 1099.17 ± 0.51 | 1600.5 ± 0.93
313.15 K | 1095.08 ± 0.51 | 1584.5 ± 0.92
318.16 K | 1091 ± 0.51 | 1568.6 ± 0.92
323.16 K | 1086.92 ± 0.51 | 1552.8 ± 0.91

CC#N [acetonitrile] + O=C1CCCN1
[2], x2 = 0
Conditions | mass density [kg/m3] | speed of sound [m/s]
298.15 K | 776.609 ± 0.52 | 1278.9 ± 0.88
303.15 K | 771.183 ± 0.52 | 1259 ± 0.87
308.15 K | 765.722 ± 0.52 | 1239.1 ± 0.87
313.15 K | 760.231 ± 0.53 | 1219.3 ± 0.86
318.15 K | 754.709 ± 0.53 | 1199.5 ± 0.86
323.16 K | 749.15 ± 0.53 | 1179.6 ± 0.85

CN1CCCC1=O [N-methylpyrrolidone] + ClC(Cl)Cl
[2], x1 = 1
Conditions | mass density [kg/m3] | speed of sound [m/s]
293.15 K | 1032.51 ± 0.51 | 1564.7 ± 0.94
298.14 K | 1028.07 ± 0.51 | 1545.5 ± 0.94
303.14 K | 1023.61 ± 0.51 | 1526.1 ± 0.93
308.15 K | 1019.15 ± 0.51 | 1506.9 ± 0.93

CC#N [acetonitrile] + CN1CCCC1=O
[2], x2 = 0
Conditions | mass density [kg/m3] | speed of sound [m/s]
293.15 K | 781.989 ± 0.52 | –
298.15 K | 776.616 ± 0.52 | 1278.6 ± 0.88
303.15 K | 771.178 ± 0.52 | 1258.4 ± 0.88
308.15 K | 765.719 ± 0.52 | 1238.3 ± 0.87
313.15 K | 760.223 ± 0.53 | 1218.2 ± 0.87
318.16 K | 754.702 ± 0.53 | 1198.1 ± 0.86
323.16 K | 749.144 ± 0.53 | 1178 ± 0.86
